B1: bFGF2: mouse basic fibroblast growth factor 2 (protein, UniProt P15655 10-154, looked up)
Fibroblast growth factor 2: PALPEDGGAAFPPGHFKDPKRLYCKNGGFFLRIHPDGRVDGVREKSDPHVKLQLQAEERGVVSIKGVCANRYLAMKEDGRLLASKCVTEECFFFERLESNNYNTYRSRKYSSWYVALKRTGQYKLGSKTGPGQKAILFLPMSAKS

Legend:
Type in all cases: cell-based
P38 = assay: Kinase translocation reporter imaging, Dronpa-based P38 sensor, in NIH/3T3 cells
Text: (§1) The constructs of JNKKTRrsGreenFast-E (JNKKTR is SEQ ID NO: 5), P38KTRDronpa, ERKKTRrsFastLime (ERKKTR is SEQ ID NO: 6) were built based on the original KTRs constructs JNKKTRClover (addgene plasmid 59151; JNKKTR is SEQ ID NO: 5), P38KTRmCerulean3 (addgene plasmid 59155), ERKKTRClover(addgene plasmid 59150; ERKKTR is SEQ ID NO: 6), all gift of Markus W. Covert (Regot S, et al., Cell, (2014); 157(7):1724-34). The newly developed three KTRs were then used along with PKAKTRClover (addgene plasmid […]; PKAKTR is SEQ ID NO: 7) and H2B-TagBFP to report the activities of all four kinases. H2B-TagBFP was used as a nucleus marker. NIH/3T3 cells were imaged on the same microscope and incubator system as the imaging of cell cycle phases. Cell culture media were changed to imaging media (MEM (Gibo) without phenol red with 1% FBS (Gibo)) prior to imaging. The imaging conditions (including exposure time, excitation, and emission) for KTRs were the same as those for imaging cell cycle phases as described previously. […]
(§2) Quantification of KTRs: Kinase activities reported by KTRs including CDK2 reporter and CDK4/6 reporter were quantified following the methods described previously (Regot S, et al., Cell, (2014); 157(7):1724-34). […]

ERK = assay: Kinase translocation reporter imaging, rsFastLime-based ERK sensor, in NIH/3T3 cells
Text: as §1, §2

Ca^2+ = assay: Ca2+ imaging with NIR-GECO2G in NIH/3T3 cells (seven-signal imaging); conditions: 100 ng/ml PMA added at t=44 min (after forskolin)
Text: (§3) Simultaneous imaging of seven cell activities within single cells: The genes of the single-color KTRs were cloned into the following plasmid: CAG-JNKKTRrsGreenF-E-P2A-ERK KTRrsFastLime-IRES-PKAKTRClover-P2A-P38KTRDropna (JNKKTR is SEQ ID NO: 5 and PKAKTR is SEQ ID NO: 7). The aforementioned plasmid was then used with plasmid CAG-NIR-GECO2G (Qian Y, et al., PLoS Biol., (2020); 18(11):e3000965), plasmid CMV-Pink Flamindo (Harada K, et al., Sci Rep., (2017); 7(1):7351), and plasmid CMV-BlueCKAR (Mehta S, et al., Nat Cell Biol, (2018); 20(10):1215-25) for imaging 7 signals within individual NIH/3T3 cells. Imaging conditions for blue channel, green channel, and red channel were the same as those used in the imaging of cell cycle phases and CDKs activities. An extra channel (excitation: 637/12 nm at 9 mW/mm^2; emission: 664LP, exposure time: 100 ms) was used for imaging NIR-GECO2G. Images and movies were acquired every 2 min. 50 μM forskolin (Millipore Sigma) and 100 ng/ml Phorbol 12-myristate 13-acetate (PMA) (Millipore Sigma) were used to stimulate cells.

PKC = PKC imaging with BlueCKAR in NIH/3T3 cells (seven-signal imaging); conditions: 100 ng/ml PMA added at t=44 min (after forskolin)
Text: as §3

cAMP = cAMP imaging with Pink Flamindo in NIH/3T3 cells (seven-signal imaging); conditions: 100 ng/ml PMA added at t=44 min (after forskolin)
Text: as §3

JNK = assay: Kinase translocation reporter imaging, rsGreenF-E-based JNK sensor, in NIH/3T3 cells
Text: as §1, §2

PKA = assay: Kinase translocation reporter imaging, PKA KTR-Clover, in NIH/3T3 cells
Text: as §1, §2

[1] = seven-signal imaging, 100 ng/ml PMA added at t=44 min (after forskolin)
[2] = four-KTR imaging, 20 ng/ml bFGF2 at t=0 min

| Molecule | P38 response (P38; [1]) | ERK response (ERK; [1]) | Ca^2+ response (Ca^2+) | PKC response (PKC) | cAMP response (cAMP) | JNK response (JNK; [1]) | PKA response (PKA; [1]) | P38 KTR signal after stimulation (P38; [2]) | ERK KTR signal after stimulation (ERK; [2]) | JNK KTR signal after stimulation (JNK; [2]) | PKA KTR signal after stimulation (PKA; [2]) |
| --- | --- | --- | --- | --- | --- | --- | --- | --- | --- | --- | --- |
| CCCCCCCCCCCCCC(=O)O[C@@H]1[C@@H](C)[C@@]2(O)[C@@H](C=C(CO)C[C@]3(O)C(=O)C(C)=C[C@@H]23)[C@@H]2C(C)(C)[C@]12OC(C)=O [PMA, phorbol 12-myristate 13-acetate] | little to no changes | strong responses | little to no changes | strong responses | strong responses | strong responses | strong responses |  |  |  |  |
| B1 |  |  |  |  |  |  |  | steadily increased over time | steadily increased over time | Fast onset | Fast onset |

— patent US20240287627A1, “TEMPORALLY MULTIPLEXED IMAGING” (MASSACHUSETTS INSTITUTE OF TECHNOLOGY, priority 2023, published 2024)
